Results published in PubChem BioAssay (NCI).
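Where inhibition never reached the appropriate level, the endpoint shown equals the highest concentration tested. Otherwise, values were interpolated linearly from a five-concentration, 48-hour dose response in 96-well plates. Definition used: TGI = concentration required for complete inhibition of growth.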

Legend:
Test in all cases: NCI tumour cell line growth inhibition, 48 h
NCI/ADR-RES ovarian = tested on: NCI/ADR-RES ovarian
MDA-MB-435 = tested on: MDA-MB-435
NCI-H460 lung = tested on: NCI-H460 lung
OVCAR-3 ovarian = tested on: OVCAR-3 ovarian
TK-10 renal = tested on: TK-10 renal
MCF7 breast = tested on: MCF7 breast
HCT-15 colon = tested on: HCT-15 colon
BT-549 breast = tested on: BT-549 breast
SNB-75 CNS = tested on: SNB-75 CNS
T-47D breast = tested on: T-47D breast
SF-295 CNS = tested on: SF-295 CNS
ACHN renal = tested on: ACHN renal
RXF 393 renal = tested on: RXF 393 renal
IGROV1 ovarian = tested on: IGROV1 ovarian
HOP-62 NSCLC = tested on: HOP-62 NSCLC
MOLT-4 leukemia = tested on: MOLT-4 leukemia
NCI-H226 lung = tested on: NCI-H226 lung
MDA-MB-231 breast = tested on: MDA-MB-231 breast

SMILES	TGI (NCI/ADR-RES ovarian) [µM]	TGI (MDA-MB-435) [µM]	TGI (NCI-H460 lung) [µM]	TGI (OVCAR-3 ovarian) [µM]	TGI (TK-10 renal) [µM]	TGI (MCF7 breast) [µM]	TGI (HCT-15 colon) [µM]	TGI (BT-549 breast) [µM]	TGI (SNB-75 CNS) [µM]	TGI (T-47D breast) [µM]	TGI (SF-295 CNS) [µM]	TGI (ACHN renal) [µM]	TGI (RXF 393 renal) [µM]	TGI (IGROV1 ovarian) [µM]	TGI (HOP-62 NSCLC) [µM]	TGI (MOLT-4 leukemia) [µM]	TGI (NCI-H226 lung) [µM]	TGI (MDA-MB-231 breast) [µM]
CC(=O)N1N=C(N)CC1=O	> 100	> 100	> 100	> 100	> 100	> 100	> 100	> 100	> 100	> 100	> 100	> 100	> 100	> 100	> 100	> 100	> 100	> 100
CSc1nc(O)c(/C=C2\C=Nc3ccccc32)[nH]1	> 100	> 100	> 100	> 100	> 100	> 100	> 100	> 100	> 100	> 100		> 100	> 100	> 100	> 100	> 100	> 100	> 100
O=c1c(-c2ccccc2Cl)coc2cc(F)ccc12	46.7	4.31	> 100	> 100	> 100	> 100	> 100	48.5	54.5	> 100	48.6	> 100	> 100	51.5	62.2	> 100	> 100	67.3
O=c1[nH]c2ccc(CC(=S)N3CCN(c4ccccc4)CC3)cc2o1	> 100	> 100	> 100	> 100	> 100	> 100	> 100	> 100	> 94.7	> 100	> 100	> 100	> 100	> 100	> 100	> 100	> 100	> 100
O=C(N/N=C\c1ccc([N+](=O)[O-])cc1)c1ccccc1Nc1ccccc1C(=O)N/N=C/c1ccc([N+](=O)[O-])cc1	> 100	> 100	> 100	> 100	> 100	> 100	> 100	> 100	> 100	> 100	> 100	> 100	> 100	> 100	> 100	> 100	> 100	95.1
CC1(C)C(=O)C2(OS(=O)(=O)C(F)(F)F)CCC1C2 (centres undefined)	> 100	> 100	> 100	> 100	> 100	> 100	> 100	> 100	> 100	> 100	> 100	> 100	> 100	> 100	> 100	> 100	> 100	> 100
COC(=O)c1ccc(CCc2cc(O)c(Br)cc2O)cc1	43.2	22.6	33.3	19.8	27.6	28.1	26.1	15.8	> 59.6	51.1	28	25.9	32.9	28.5	32.2	6.65	55.1	29
O=C(/C=C/c1cccs1)c1cccc(C(=O)/C=C/c2cccs2)n1	> 100	> 100	> 100	> 100	> 100	> 100	> 100	> 100	> 100	> 100	> 100	> 100	> 86.9	> 100	> 100	6.54	> 100	> 100
CC(=O)O[C@H]1CC[C@@]2(C)C(=CC[C@@H]3[C@@H]2CC[C@]2(C)c4c(cc(C#N)c(=N)n4C(C)=O)C[C@@H]32)C1	39.6	38.5	30.3	34.4	66.8	47.2	29.4	34.8	44.9	46.9	29.6	47.8	66.5	53.3	49.4	35.8	72.8	77.9
Clc1ccc2c(NCCNc3ccnc4cc(Cl)ccc34)ccnc2c1	> 100	32	27	28.3	34.6	36	31	36.8	50.3	43.8	26.2	32.7	36.1	36.6	30.1	35.3	62.5	32.2
COc1cc2c3c(n(Cc4ccccc4)c(=O)c2cc1OC)-c1ccccc1C3=O	> 100	> 100	> 100	> 100	> 100	> 100	> 100	> 100	> 100	> 100	> 100	> 100	> 100	> 100	> 100	> 100	> 100	> 100
C/C(=N\O)c1cccc(Nc2nc3ccccc3c3occc23)c1	29.7	24	21	31.8	27.6	37.1	22.4	26.9	32.3	44.7	22.6	22.8	21		32.8	32.9	16.5	26.4
Cc1ccc(/C=N/Nc2nncc3ccccc23)s1	> 100	> 100	> 100	> 100	> 100	> 100	> 100	> 100	> 75.9	> 100	98.2	> 100	> 100	> 100	> 77.4	> 100	> 100	> 82
Nn1c(SCC(=O)NCc2ccccc2)nc2ccccc2c1=O	> 100	> 100	> 100	> 100	> 100	> 100	> 100	> 100	> 100	> 100	> 100	> 100	> 100	> 100		49.5	> 100	> 100
